Laboratory results taken from PMC4679714, “Influence of a novel, versatile bifunctional chelator on theranostic properties of a minigastrin analogue” (EJNMMI Research, 2015).
Square brackets hold non-standard residues; d marks the D form. Peptide text beside a SMILES is read from it. * marks the point of attachment. X1 = O=C(O)CN1CCN(CC(=O)O)CC(CCCCCCCCCC(=O)*)(N(CC(=O)O)CC(=O)O)C1

Experiments:
[1] = design: method as in doi:10.1002/ejic.201201108; conditions: cited from earlier work
human CCK2 receptor = target: T1, human CCK2 receptor (Homo sapiens, UniProt P32239); test: Receptor binding affinity (IC50), displacement of 177Lu-labelled CP04 from CCK2+ cell membranes; conditions: radioligand 177Lu-labelled CP04, 1 h at 37 °C
T1 construct: expressed in transfected cells; host or cells: A431-309CCK2R (A431 cells transfected with CCK2R); membranes released by hypoosmotic lysis
T1 sequence (P32239 1-447): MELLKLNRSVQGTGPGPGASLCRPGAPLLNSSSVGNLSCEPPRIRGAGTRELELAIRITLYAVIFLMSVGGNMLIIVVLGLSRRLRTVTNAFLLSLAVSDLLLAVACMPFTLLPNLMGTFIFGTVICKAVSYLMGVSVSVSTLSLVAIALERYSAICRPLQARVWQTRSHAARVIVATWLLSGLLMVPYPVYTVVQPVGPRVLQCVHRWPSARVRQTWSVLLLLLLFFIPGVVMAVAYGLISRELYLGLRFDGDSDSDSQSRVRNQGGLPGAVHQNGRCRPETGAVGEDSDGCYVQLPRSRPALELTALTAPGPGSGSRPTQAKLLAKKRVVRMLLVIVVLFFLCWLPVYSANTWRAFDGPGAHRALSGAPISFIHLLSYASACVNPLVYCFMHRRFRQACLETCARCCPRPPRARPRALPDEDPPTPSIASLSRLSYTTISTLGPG
Experimental: A human transfected cell line was used with two different expression properties of the cholecystokinin (CCK) receptor: CCK2+ (A431-309CCK2R; receptor-positive cells) and CCK2− (A431-609; mock transfected control cells) cells.
In vitro binding affinities of AAZTA-MG were determined by using CCK2+ cell membranes and ^177Lu-labelled CP04 (a minigastrin analogue with high affinity to the CCK2 receptor) as radioligand incubated with increasing concentrations of the competitor. As competitor AAZTA-MG and [^natLu]- and [^natGa]-AAZTA-MG were used. The latter were prepared by incubating 10 μg AAZTA-MG with a tenfold molar excess of Lu-chloride in ascorbic acid buffer and 100 μl Ga-bromide in sodium acetate buffer for 10 min, respectively.
The 96-well plates (MulitScreen Filter Plates, HTS) were washed with 250 μL 10 mM TRIS buffered saline (pH 7.3). CCK2 cells were diluted in 20 mM HEPES buffer containing […] MgCl2—in this hypoosmotic solution the cells were cracked releasing free membranes.

Row | Compound | Stability constant (logK) for Ga^3+ [1] | Stability constant (logK) for In^3+ [1] | also measured
1 | CC1(N(CC(=O)O)CC(=O)O)CN(CC(=O)O)CCN(CC(=O)O)C1 [AAZTA, 6-[Bis(carboxymethyl)amino]-1,4-bis(carboxymethyl)-6-methyl-1,4-diazepane] | 22.18 | 29.58 | 
2 | CSCC[C@H](NC(=O)[C@H](Cc1c[nH]c2ccccc12)NC(=O)CNC(=O)[C@H](Cc1ccc(O)cc1)NC(=O)[C@H](C)NC(=O)[C@@H](CCC(=O)O)NC(=O)CCCCCCCCCC1(N(CC(=O)O)CC(=O)O)CN(CC(=O)O)CCN(CC(=O)O)C1)C(=O)N[C@@H](CC(=O)O)C(=O)N[C@@H](Cc1ccccc1)C(N)=O [[^natGa]AAZTA-MG, metal not drawn] (X1-[dE]AYGWMDF-NH2) |  |  | IC50 (human CCK2 receptor; listed as [^natGa]-AAZTA-MG): 8.18 ± 3.16 nM
3 | CSCC[C@H](NC(=O)[C@H](Cc1c[nH]c2ccccc12)NC(=O)CNC(=O)[C@H](Cc1ccc(O)cc1)NC(=O)[C@H](C)NC(=O)[C@@H](CCC(=O)O)NC(=O)CCCCCCCCCC1(N(CC(=O)O)CC(=O)O)CN(CC(=O)O)CCN(CC(=O)O)C1)C(=O)N[C@@H](CC(=O)O)C(=O)N[C@@H](Cc1ccccc1)C(N)=O [AAZTA-MG, [AAZTA^0, D-Glu^1, desGlu^2–6]-minigastrin] (X1-[dE]AYGWMDF-NH2) |  |  | IC50 (human CCK2 receptor): 10 nM
4 | O=C(O)CN1CCN(CC(=O)O)CCN(CC(=O)O)CCN(CC(=O)O)CC1 [^68Ga-DOTA, 1,4,7,10-tetraazacyclododecane-1,4,7,10-tetraacetic acid, metal not drawn] | 21.3 | 23.9 | 
5 | CSCC[C@H](NC(=O)[C@H](Cc1c[nH]c2ccccc12)NC(=O)CNC(=O)[C@H](Cc1ccc(O)cc1)NC(=O)[C@H](C)NC(=O)[C@@H](CCC(=O)O)NC(=O)CCCCCCCCCC1(N(CC(=O)O)CC(=O)O)CN(CC(=O)O)CCN(CC(=O)O)C1)C(=O)N[C@@H](CC(=O)O)C(=O)N[C@@H](Cc1ccccc1)C(N)=O [[^natLu]AAZTA-MG, metal not drawn] (X1-[dE]AYGWMDF-NH2) |  |  | IC50 (human CCK2 receptor; listed as [^natLu]): 9.44 ± 4.57 nM
